{"source": "patent US8414885B2", "about": "“Methods and compositions for treating cancer” (priority 2009, dated 2013)", "key": {"A2058 melanoma cultures": {"system": "A2058 melanoma cultures", "test": "EtHD-1 cell death with or without autophagy inhibitor", "format": "cell-based, human", "conditions": "A2058, ΔPK plus 3-MA, 48 h p.i.", "protocol": "(§1) FIG. 14. ΔPK induced autophagy contributes to its ability to cause melanoma cell death. (A) A2058 cells were mock or ΔPK-infected (multiplicity of infection, moi=1.0) with and without the autophagy inhibitor 3-MA and protein extracts were assayed for LC3-I and LC3-II expression by immunoblotting. Data were quantified by densitometric scanning, and results are expressed as LC3-I/LC3-II ratio±s.d. (B). A2058 melanoma cultures were mock or ΔPK-infected (moi=5), cultured in serum-free medium and stained with ethidium homodimer-1 (EtHD-1) at 48 h p.i. Cells were counted in three randomly selected fields (>250 cells) and the mean percentage of staining cells was calculated.\nTo examine the role of autophagy in ΔPK-induced melanoma cell death, the cultures were mock-infected with PBS or infected with ΔPK in the absence or presence of 3-MA and cell death was determined at 0-72 h p.i. by EtHD-1 staining. ΔPK caused a time-dependent increase in the percentage of EtHD-1+ cells that reached maximal levels at 48 h p.i. (51.1±4.8%,).\nA2058 melanoma cultures were mock or ΔPK-infected (moi=0.5), cultured in serum-free medium and stained with ethidium homodimer-1 (EtHD-1) at 48 h p.i. Cells were counted in three randomly selected fields (>250 cells) and the mean percentage of staining cells was calculated."}, "LC3-I/LC3-II": {"system": "LC3-I/LC3-II", "test": "Immunoblotting for LC3-I conversion to LC3-II (autophagy)", "format": "cell-based, human", "conditions": "A2058, 3-MA 5 mM", "protocol": "as §1\nThe role of autophagy in cell death is still controversial. The general consensus is that autophagy is a mechanism that promotes or counteracts cell death depending on the cell type, stimulus and conditions. […] To examine whether autophagy was increased in ΔPK infected cells, we focused on LC3-I conversion to LC3-II which serves as a marker for autophagosome maturation.\nA2058 cells were mock and ΔPK-infected (multiplicity of infection, moi=1.0) with and without the autophagy inhibitor 3-MA. Data were quantified by densitometric scanning, and results are expressed as the ratio of the LC3-I/LC3-II ratio±s.d."}}}
{"smiles": "Cn1cnc(N)c2ncnc1-2", "note": "[3-MA, 3-Methyl-adenine]", "values": [{"measurement": "percentage of cell death (EtHD-1+) in ΔPK infected cultures in presence of inhibitor", "setting": "A2058 melanoma cultures", "value": "37.3±5.2", "unit": "%"}, {"measurement": "effect of inhibitor on LC3-I conversion after ΔPK treatment", "setting": "LC3-I/LC3-II", "value": "reversed LC3-I conversion"}]}
